We go through 6 compounds from ChEMBL document CHEMBL1146515, “Four new triterpenoids from Maytenus ilicifolia” (J Nat Prod, 2004).

The structures appear in SMILES notation. Values after ≈ are worked out from the molar mass of the structure shown. Active and inactive are the calls of the source. The calls are words filed in the database; no cut-off is given here.

Common to all, as to assay type: functional, cell-based
For one assay, the system named is HL-60. In words: Induction of human HL60 cell differentiation assessed as morphological change at 0.05 to 25 ug/ml by phase-contrast microscopy.
The test system of another assay is KB. In words: Cytotoxicity against vincristine-sensitive human KB cells after 72 hrs by alamar blue assay. Background: Alamar Blue is a resazurin reagent that responds to reducing activity.
Assay [1] deals with KB/VJ300. As to the kind of experiment: Reversal of vincristine resistance in human KB/VJ300 cells.
The species named for a further assay is Homo sapiens. As to the kind of experiment: Cytotoxicity against human KU-19-20 cells after 72 hrs by alamar blue assay.
Assay [2] relates to KB/VJ300. In words: Cytotoxicity against vincristine-resistant human KB/VJ300 cells after 72 hrs by alamar blue assay.

The IC50 is the concentration that inhibits the measured activity by half. Turning to `C[C@H]1[C@H](C)CC[C@]2(CO)CC[C@]3(C)C(=CC[C@@H]4[C@@]5(C)CC[C@H](OC(=O)/C=C/c6ccc(O)c(O)c6)C(C)(C)[C@@H]5CC[C@]43C)[C@H]12`, the result in the assay with HL-60 and in the assay with KB/VJ300 [1] was inactive. Further, the IC50 in the assay with KB is more than 10 µg/mL.
With `C=C(C)[C@@H]1CC[C@]2(CO)CC[C@]3(C)[C@H](CC[C@@H]4[C@@]5(C)CC[C@H](OC(=O)/C=C/c6ccc(O)c(O)c6)C(C)(C)[C@@H]5CC[C@]43C)[C@@H]12`, the outcome in the assay on HL-60 and with KB/VJ300 [1] was inactive. For the same compound, the half-maximal inhibitory concentration (IC50) with KB is more than 10 µg/mL.
With `C=C(C)[C@@H]1CC[C@]2(CO)CC[C@]3(C)[C@H](CC[C@@H]4[C@@]5(C)CC[C@H](O)C(C)(C)[C@@H]5CC[C@]43C)[C@@H]12` [BETULIN], the result in the assay on HL-60 and in the assay on KB/VJ300 [1] was inactive. The IC50 with KB was more than 10 µg/mL.
With `CC1(C)CC[C@]2(CO)CC[C@]3(C)C(=CC[C@@H]4[C@@]5(C)CC[C@H](OC(=O)/C=C/c6ccc(O)c(O)c6)C(C)(C)[C@@H]5CC[C@]43C)[C@H]2C1`, the outcome with HL-60 and with KB/VJ300 [1] was inactive. The IC50 in the assay with KB is more than 10 µg/mL.
With `CC1(C)CC[C@]2(CO)CC[C@]3(C)C(=CC[C@@H]4[C@@]5(C)CC[C@H](O)C(C)(C)[C@@H]5CC[C@]43C)[C@@H]2C1` [ERYTHRODIOL], the outcome in the assay listed under Homo sapiens and with KB/VJ300 [2] was Active. Besides, the outcome in the assay on HL-60 and in the assay with KB/VJ300 [1] was inactive. In the assay on KB, this compound yielded an IC50 of 7 µg/mL (≈ 15.8 µM).
As for `C=C(C)[C@@H]1CC[C@]2(CO)CC[C@]3(C)[C@H](CC[C@@H]4[C@@]5(C)C[C@@H](O)C(=O)C(C)(C)[C@@H]5CC[C@]43C)[C@H]12` [MAYTEFOLIN A], the outcome in the assay on HL-60 and in the assay with KB/VJ300 [1] was inactive. The IC50 in the assay on KB was more than 10 µg/mL.
